# Experimental data reported in US20080207533A1, “Pharmaceutical Compositions” (priority 2005, published 2008).
# Structures can show the parent of a compound that is named as a salt.
# Assay: Degradation (hydrolysis) of Compound I after wet granulation with water
# Format: physicochemical
# Settings: granulation liquid deionized water; LOD value less than or equal to about 1% for the dried granulate
# Description: Once blended, a granulation liquid, deionized water, is added for wet kneading. The impeller and chopper speeds are increased to setting 2 (e.g., 306 rpm and 500 rpm, respectively, for the impeller and chopper). The kneading is conducted at room temperature. After granulation, the moist granulates are dried in a fluid-bed dryer with an air inlet temperature of approximately 70° C. to obtain granulates. The moist granulates are dried such that there is a LOD value below 1.0%. The granulates are subsequently sieved using a screen with a mesh size of 1.25 mm or 0.8 mm. As mentioned above, Compound I is a salt of an ester which is potentially sensitive to hydrolysis in the presence of water.
compound,measurement,value
"CC(C)[C@H](N)C(=O)O[C@@H]1[C@@H](CO)O[C@@H](n2ccc(N)nc2=O)[C@]1(C)O [Compound I, dihydrochloride salt]","degradation, e.g., due to hydrolysis, after wet granulation",does not result in an increase in degradation
